Measurements published in the NIST ThermoML archive (doi:10.1016/j.jct.2018.12.009).
Numbers after ± are expanded uncertainties.

Details: for vapor or sublimation pressure: Liquid, Closed cell (Static) method; for mass density: Fluid (supercritical or subcritical phases), isochoric method

CC(C)O [propan-2-ol]
Details | vapor or sublimation pressure [kPa]
301.24 K | 7 ± 1
314.26 K | 15 ± 1
314.29 K | 15 ± 1
314.52 K | 15 ± 1
314.8 K | 16 ± 1
315.05 K | 16 ± 1
315.3 K | 16 ± 1
315.42 K | 16 ± 1
315.61 K | 16 ± 1
315.8 K | 17 ± 1
341.91 K | 57 ± 1
342.03 K | 57 ± 1
342.08 K | 57 ± 1
342.2 K | 57 ± 1
342.32 K | 58 ± 1
342.49 K | 58 ± 1
342.67 K | 58 ± 1
342.79 K | 59 ± 1
342.91 K | 59 ± 1
343.03 K | 59 ± 1
369.05 K | 169 ± 2
369.13 K | 169 ± 2
369.16 K | 169 ± 2
369.28 K | 170 ± 2
369.39 K | 171 ± 2
369.5 K | 171 ± 2
369.67 K | 172 ± 2
369.84 K | 173 ± 2
369.96 K | 174 ± 2
370.07 K | 175 ± 2
391.32 K | 358 ± 4
391.5 K | 360 ± 4
391.53 K | 360 ± 4
391.54 K | 360 ± 4
391.65 K | 362 ± 4
391.76 K | 363 ± 4
391.87 K | 364 ± 4
391.98 K | 366 ± 4
392.09 K | 367 ± 4
392.2 K | 368 ± 4
416.55 K | 732 ± 7
416.65 K | 734 ± 7
416.73 K | 736 ± 7
416.76 K | 736 ± 7
416.86 K | 739 ± 8
416.97 K | 741 ± 8
417.08 K | 743 ± 8
417.18 K | 745 ± 8
417.29 K | 747 ± 8
417.4 K | 749 ± 8
417.5 K | 756 ± 8
442.12 K | 1367 ± 14
442.14 K | 1368 ± 14
442.23 K | 1371 ± 14
442.33 K | 1374 ± 14
442.43 K | 1377 ± 14
442.54 K | 1381 ± 14
442.64 K | 1383 ± 14
442.74 K | 1386 ± 14
442.85 K | 1389 ± 14
463.48 K | 2136 ± 22
463.56 K | 2140 ± 22
463.58 K | 2141 ± 22
463.78 K | 2149 ± 22
463.83 K | 2152 ± 22
463.97 K | 2158 ± 22
464.18 K | 2166 ± 22
464.27 K | 2171 ± 22
464.42 K | 2177 ± 22
464.97 K | 2201 ± 22
465.27 K | 2213 ± 22
465.34 K | 2217 ± 22
468.1 K | 2330 ± 24
482.51 K | 3081 ± 31
482.6 K | 3085 ± 31
482.7 K | 3089 ± 31
482.72 K | 3090 ± 31
482.8 K | 3093 ± 31
482.89 K | 3098 ± 31
482.99 K | 3102 ± 31
483.09 K | 3106 ± 31
483.18 K | 3110 ± 31
500.85 K | 4213 ± 43
500.95 K | 4219 ± 43
501.04 K | 4224 ± 43
501.08 K | 4226 ± 43
501.14 K | 4229 ± 43
501.23 K | 4235 ± 43
501.33 K | 4240 ± 43
501.42 K | 4245 ± 43
501.53 K | 4251 ± 43
501.62 K | 4256 ± 43
501.81 K | 4267 ± 43
501.9 K | 4272 ± 43
503.92 K | 4428 ± 45
504.02 K | 4438 ± 45
504.03 K | 4436 ± 45
504.11 K | 4366 ± 45
504.31 K | 4456 ± 45
504.5 K | 4470 ± 45
504.59 K | 4477 ± 45
504.98 K | 4504 ± 46
505.06 K | 4521 ± 46
505.08 K | 4522 ± 46
505.27 K | 4536 ± 46
505.37 K | 4544 ± 46
506.43 K | 4667 ± 47
506.53 K | 4675 ± 47
506.61 K | 4648 ± 47
506.62 K | 4682 ± 47
506.72 K | 4690 ± 47
506.82 K | 4697 ± 48
506.96 K | 4708 ± 48
506.97 K | 4709 ± 48
507.11 K | 4720 ± 48
507.2 K | 4727 ± 48
507.3 K | 4735 ± 48
507.4 K | 4743 ± 48
507.5 K | 4750 ± 48
507.59 K | 4757 ± 48
507.69 K | 4765 ± 48
507.79 K | 4773 ± 48
507.89 K | 4781 ± 48
508.04 K | 4793 ± 49
508.16 K | 4803 ± 49

Details | mass density [kg/m3]
508.16 K, 4803 kPa | 329.2 ± 0.7
508.18 K, 4804 kPa | 329.2 ± 0.7
508.28 K, 4813 kPa | 329.2 ± 0.7
508.37 K, 4822 kPa | 329.2 ± 0.7
508.47 K, 4831 kPa | 329.2 ± 0.7
508.57 K, 4840 kPa | 329.2 ± 0.7
508.67 K, 4849 kPa | 329.2 ± 0.7
508.76 K, 4858 kPa | 329.2 ± 0.7
509.35 K, 4911 kPa | 329.2 ± 0.7
509.45 K, 4920 kPa | 329.2 ± 0.7
509.5 K, 5095 kPa | 329.2 ± 0.7
509.55 K, 4929 kPa | 329.2 ± 0.7
509.64 K, 4938 kPa | 329.2 ± 0.7
509.79 K, 4951 kPa | 329.2 ± 0.7
509.99 K, 4967 kPa | 329.2 ± 0.7
510.14 K, 4981 kPa | 329.2 ± 0.7
510.23 K, 4990 kPa | 329.2 ± 0.7
510.33 K, 4999 kPa | 329.2 ± 0.7
510.48 K, 5012 kPa | 329.2 ± 0.7
510.93 K, 5271 kPa | 329.2 ± 0.7
516.9 K, 5603 kPa | 329.2 ± 0.7
516.99 K, 5611 kPa | 329.2 ± 0.7
517.08 K, 5619 kPa | 329.2 ± 0.7
517.27 K, 5637 kPa | 329.2 ± 0.7
521.87 K, 6056 kPa | 329.2 ± 0.7
521.96 K, 6064 kPa | 329.2 ± 0.7
522.14 K, 6080 kPa | 329.2 ± 0.7
522.33 K, 6397 kPa | 329.2 ± 0.7
522.42 K, 6405 kPa | 329.2 ± 0.7
522.51 K, 6414 kPa | 329.2 ± 0.7
522.6 K, 6495 kPa | 329.2 ± 0.7
